This note sets out measurements from patent publication US10219516B2, “Molecules having pesticidal utility, and intermediates, compositions, and processes, related thereto” (priority 2015, dated 2019).

Broadly, the melting point is the temperature of the solid-liquid transition.

In data set [1] the test system is Beet Armyworm (Spodoptera exigua, LAPHEG). Put plainly: Bioassay on Beet Armyworm (BAW), 128-well diet tray assay. The data set is classed as in vivo. The following applies: Beet Armyworm, 128-well diet tray assay, read-out: BAW rating. The procedure, abridged:
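In a 128-well format, eight wells per compound received a surface dose of 50 μg/cm^2 on artificial diet. After drying, each well got one to five second instar larvae, held at 25° C. with 14:10 photoperiod. Mortality percentages after five to seven days were averaged.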

Data set [2] deals with Cabbage Looper (Trichoplusia ni, TRIPNI). The experiment in a line: Bioassay on Cabbage Looper (CL), 128-well diet tray assay. It is filed as in vivo. Conditions: Trichoplusia ni; Cabbage Looper, 128-well diet tray assay; read-out: CL rating. Put shortly: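 Using eight wells per molecule, artificial diet was dosed at 50 μg/cm^2 with compound in 90:10 acetone-water and dried before one to five second-instar larvae were added per well. Covered vented trays were kept at 25° C. with 14:10 light-dark for five to seven days, then per-well percent mortality was recorded and averaged.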

Data set [3] has as its system Green Peach Aphid (Myzus persicae, MYZUPE). Put plainly: Bioassay on Green Peach Aphid (GPA), foliar spray on infested cabbage seedlings. It is filed as in vivo. The following applies: 72 h, Green Peach Aphid, foliar spray on cabbage seedlings, read-out: GPA rating. The procedure, abridged: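 Cabbage seedlings (2-3 true leaves) infested with 20-50 wingless adult and nymph aphids one day before treatment; sprayed to runoff at 200 ppm in 0.025% Tween 20 water with 20% acetone/methanol, four pots per treatment. Held three days at about 25° C; live aphids counted, % control by Abbott's correction versus solvent check.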

In data set [4] the test system is Yellow Fever Mosquito (Aedes aegypti, AEDSAE). Put plainly: Bioassay on Yellow Fever Mosquito (YFM), 96-well plate larval assay. Conditions: Yellow Fever Mosquito, 96-well plate larval assay. It is filed as in vivo. Put shortly:
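Compound stocks at 4000 ppm in DMSO were diluted with 90:10 water/acetone, and 15 μL aliquots were dispensed into six replicate plates. About 1-day-old larvae in liver-powder water were added per well. Plates were covered and held at room temperature for 3 days before each well was scored for mortality.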

`O=C(O)C1C(c2cc(Cl)cc(C(F)(F)F)c2)C1(Cl)Cl` (stereo not shown) returned a melting point of 113 to 115 °C.
Still for that read-out and setting: the figure for `Nc1ccc(OC(F)(F)F)c(C(=O)Nc2ccc(F)cc2)c1` is 115 to 117 °C; for `Nc1cc(Cl)cc(C(=O)Nc2ccc(F)cc2)c1` it is 133 to 136 °C.
Same read-out and setting: the figure for `O=C(O)C1C(c2cc(Cl)cc(Br)c2)C1(Cl)Cl` (stereo not shown) is 161 to 163 °C.
Turning to `O=C(O)C1C(c2cc(F)cc(Cl)c2)C1(Cl)Cl` (stereo not shown), the melting point lay within 138 to 140 °C.
The same measure, in the same setting: for `Cc1cc(Cl)cc(C2C(C(=O)O)C2(Cl)Cl)c1` (stereo not shown) the value was 124 to 126 °C; for `Cc1ccc(C(=O)Nc2ccc(F)cc2)cc1[N+](=O)[O-]`, 136 to 138 °C.
`O=C(Nc1ccc(F)cc1)c1cc([N+](=O)[O-])ccc1OC(F)(F)F` gave a melting point of 175 to 177 °C.
On the same count and under the same terms, the figure for `O=C(Nc1ccc(F)cc1)c1cc(Cl)cc([N+](=O)[O-])c1` is 209 to 210 °C; for `Cc1c(Cl)cc(C2C(C(=O)O)C2(Cl)Cl)cc1Cl` (stereo not shown) it is 181 to 183 °C.
The same measure, in the same setting: the figure for `Cc1cc(C2C(C(=O)O)C2(Cl)Cl)cc(Cl)c1Cl` (stereo not shown) is 157 to 159 °C; for `O=C(O)C1C(c2ccc(C(F)(F)C(F)(F)F)cc2)C1(Cl)Cl` (stereo not shown) it is 116 to 118 °C; for `CCOc1ccc(C2C(C(=O)O)C2(Cl)Cl)cc1` (stereo not shown) it is 129 to 130 °C.
The same measure, in the same setting: the figure for `O=C(O)C1C(c2cc(F)c(Br)c(F)c2)C1(Cl)Cl` (stereo not shown) is 178.3 to 188.6 °C.
In turn, `COc1c(Cl)cc(C2C(C(=O)Nc3ccc(Cl)c(C(=O)O)c3)C2(Cl)Cl)cc1Cl` (stereo not shown) gave a melting point of 227 to 231 °C.
For the molecule `Nc1ccc(Cl)c(C(=O)Nc2ccc(-n3cccn3)cc2)c1`, the melting point lay in the range of 50 to 81 °C.
On the same count and under the same terms, the figure for `Cc1cc(NC(=O)OC(C)(C)C)ccc1NC(=O)c1cccc(N)c1` is 143 to 161 °C; for `Cc1cc(NC(=O)OC(C)(C)C)ccc1NC(=O)c1cc([N+](=O)[O-])ccc1Cl` it is 195 to 200 °C; for `O=C(Nc1ccc(F)c(C(F)(F)F)c1)c1cc([N+](=O)[O-])ccc1Cl` it is 192 to 202 °C.
In turn, `O=C(Nc1ccc(-c2ncco2)cc1)c1cc([N+](=O)[O-])ccc1Cl` yielded a melting point of 192 to 194 °C.
Molecule `Cc1ccc([N+](=O)[O-])cc1NC(=O)OC(C)(C)C` had a melting point of 137 to 145 °C.
`Cc1cc([N+](=O)[O-])ccc1N(C)C(=O)OC(C)(C)C` gave a melting point of 98 to 101 °C.
Same read-out and setting: the figure for `CC(C)(C)OC(=O)N(C(=O)OC(C)(C)C)c1c(N)cc(F)cc1F` is 102 to 107 °C; for `CC(C)(C)OC(=O)N(C(=O)OC(C)(C)C)c1ccc(F)cc1N` it is 104 to 115 °C.
Still for that read-out and setting: for `COc1c(Cl)cc(C2C(C(=O)O)C2(Cl)Cl)cc1Cl` (stereo not shown) the value was 161 to 164 °C.
`N#Cc1cc(Cl)cc(C2C(C(=O)O)C2(Cl)Cl)c1` (stereo not shown) displayed a melting point of 173 to 175 °C.
The molecule `COc1ccc(/C=C/c2ccc(Cl)c(Cl)c2)cc1` came in with a melting point of 91 to 94 °C.
As to `O=C(O)C1C(c2cccc(C(F)(F)F)c2)C1(Cl)Cl` (stereo not shown), the melting point was 86 to 88 °C.
`O=C(O)C1C(c2ccc(OC(F)(F)F)c(Cl)c2)C1(Cl)Cl` (stereo not shown) yielded a melting point of 134 to 136 °C.
On to `O=C(Nc1ccc(F)cc1F)c1cc(NC(=O)[C@H]2[C@H](c3ccc(F)c(Cl)c3)C2(Cl)Cl)ccc1Cl` [F533], for which the pest or weed control at 50 µg/cm2 in data set [1] and in data set [2] was 50 to 100% each time. The pest or weed control at 200 µg/mL in data set [3] was in the range of 80 to 100%. For the same molecule, in data set [4], the YFM rating entry is reported as “A (80-100)”.
Regarding `Nc1c(F)ccc(NC(=O)c2cc(NC(=O)[C@H]3[C@H](c4ccc(Cl)c(Br)c4)C3(Cl)Cl)ccc2Cl)c1F` [F579, N-(3-Amino-2,4-difluorophenyl)-5-((1R,3R)-3-(3-bromo-4-chlorophenyl)-2,2-dichlorocyclopropane-1-carboxamido)-2-chlorobenzamide], the pest or weed control at 50 µg/cm2 in data set [1] and in data set [2] was 50 to 100% each time. In data set [3], the pest or weed control at 200 µg/mL lay in the range of 80 to 100%. Also, the YFM rating entry in data set [4] is recorded as “A (80-100)”.
